Source: patent US20160272953A1, “Activated Sugars” (ZuChem, Inc., priority 2010, published 2016)

Experiments:
Sugar-1-kinase-P = test: One-pot reaction, first step: phosphorylation by Sugar-1-kinase-P (DNS assay, TLC); format: biochemical, Pyrococcus furiosus; settings: 8 mM sugar, 12 mM ATP, first 60 minutes
Protocol: (§1) Initial coupling of the reaction was tested for 1-pot synthesis of NDP-sugars. The reaction was started with 12 mM ATP, 3.5 mM MgCl2, and 8 mM of either L-Glucose or D-galactose. Partially purified Sugar-1-kinase-P was added to the mixture and a sample was taken at 0 and 60 minutes. After 60 minutes, dTTP or UTP (8 mM), 20 μL nucleotidyltransferase-S, and 2 μL of commercially available thermostable pyrophosphatase were added to the reaction and samples were taken at different time points and analyzed by TLC as shown in FIG. 7-1. […] Upon addition of the second enzyme and nucleotide, the formation of dTDP-D-galactose and dTDP-L-glucose began. The sugar nucleotides were more clearly visualized by UV, but can also been seen in the KMnO4 stained TLC plates in FIG. 6-1.

[1] = target: T1, wild-type P. furiosus enzyme (Pyrococcus furiosus, UniProt Q9HHB6); test: GalK activity by ATP to ADP conversion (HPLC), wild-type enzyme; format: biochemical; settings: 200 mM sugar, 100 mM ATP, 1 ug/ml enzyme, 60° C., 20 hours
T1 construct: 6-His (N); made in house; host or cells: E. coli
T1 sequence (Q9HHB6 whole entry): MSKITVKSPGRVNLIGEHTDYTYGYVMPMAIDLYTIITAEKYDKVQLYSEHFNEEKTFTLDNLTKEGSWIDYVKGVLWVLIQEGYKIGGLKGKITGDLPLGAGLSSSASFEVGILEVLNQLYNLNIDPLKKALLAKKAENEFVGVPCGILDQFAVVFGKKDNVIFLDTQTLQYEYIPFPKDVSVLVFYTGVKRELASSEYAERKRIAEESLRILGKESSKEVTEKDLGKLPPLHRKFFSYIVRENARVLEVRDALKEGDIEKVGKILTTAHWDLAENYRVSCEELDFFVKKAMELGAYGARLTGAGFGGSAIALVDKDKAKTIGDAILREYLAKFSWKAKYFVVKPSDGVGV
Protocol: The reaction of sugars with the wild type and mutant sugar-1-kinse such as those from Pyrococcus furiousus can also be monitored by following ATP consumption in the reaction. The amount of ATP consumption directly correlates with the amount of sugar-1-kinase produced. For example, to produce additional sugar-1-phosphates a series of experiments were carried out as follows, In a reaction mix containing 50 mM sodium phosphate buffer at pH 7.5, 100 mM ATP, 200 mM of the sugar being tested, 5mM MgC12 either 1 ug/ml of either the PK27 mutant or wild-type P. furiosus enzyme were added. The reaction was incubated at 60° C. for 20 hours. ATP and ADP concentrations were analyzed by HPLC using a Supelcosil LC-18-T column with a flow rate of 1.0 mL/min of 0.05 M. KH2P04/4 mM tetrabutylammonium hydrogen sulfate and a linear gradient solvent program of 0-30% methanol over 30 min. The percent conversion of ATP to ADP was calculated. Sugar-1-phosphate was analyzed by HPLC using Supelcosil LC-SAX column 0.05 M K-phosphate buffer, pH 6.0
GalK activity by ATp to ADp conversion, 20 h. Percentages indicate degree reaction proceeded to completion within 20 hours.

[2] = test system: Sugar-1-kinase-P and nucleotidyltransferase-S; test: One-pot coupled sugar-1-kinase / nucleotidyltransferase reaction (TLC); format: biochemical; settings: for conversion to dTDP-sugar, estimated by TLC: dTTP 8 mM as nucleotide donor
Protocol: as §1
The conversion is estimated to be greater than 80% based on the loss of Gal-1-P and appearance of dTDP-Gal on TLC. The reaction with L-glucose and dTTP was also successful, however, the conversion was lower and estimated to be 20% by TLC.

nucleotidyltransferase-S = test: Nucleotidyltransferase-S activity with Gal-1-P and dTTP (TLC and malachite green); format: biochemical, Streptococcus thermophilus; settings: 7 mM Gal-1-P, 7 mM dTTP, 0.1 U pyrophosphatase
Protocol: The nucleotidyltransferase-S enzyme was chosen for further study due to its high expression in E. coli. Nucleotidyltransferase activity was measured with the commercially available substrate D-galactose-1-phosphate (Gal-1-P). This is not the natural substrate of homologous nucleotidyltransferases, which is D-glucose-1-phosphate. Nucleotidyltransferase-S was incubated with 7 mM Gal-1-P, 7 mM dTTP, and 0.1 U of pyrophosphatase. The reaction was monitored by two different methods. […] The second method of assay was a malachite green based inorganic phosphate assay. When dTTP is coupled to a Sugar-1-phosphate it releases pyrophosphate which is broken down to pyrophosphatase to 2 molecules of inorganic phosphate.

EP-T = test: Nucleotidylyltransferase substrate specificity by TLC, EP-T; format: biochemical, Thermus thermophilus; settings: 65° C., 6 mM substrate
From the text: (§2) A fourth nucleotidlylytransferaseenzyme has been cloned from P. furiousus (EP-P2) that has previously been shown capable of converting the only commercially available L-sugar-1-phosphate (L-fucose-1-P),[47] transferring 82% to produce UDP-L-Fucose as determined by ESI-MS. EP-P2 additionally has a broad activity range on 6 other D-sugar-1-phosphates. This enzyme was cloned as a His-tag fusion and purified by IMAC. Since we had 4 different enzymes (EP-S, EP-T, EP-P, and EP-P2) with different characteristics and substrate specificities, experiments were designed to test the substrate specificities on purified nucleotidlylytransferase enzyme and pure substrates. Reactions with each of the 4 nucleotidlylytransferase enzymes were set up using 4 different sugar-1-phosphates and 2 different nucleotides (32 reactions total), with each enzyme incubated near its optimal temperature. […] Samples were taken at the time of enzyme addition and every hour for three hours and then analyzed by TLC using 80% aqueous acetonitrile +10 mM TBAHS; visualized by UV and stained in KMnO4.
(§3) The UV visible spots were circled in black for FIG. 6-3 to aid in visualization as only the nucleotides and nucleotide-activated sugars are UV active. […] Furthermore, many of the reactions proceeded to completion by the first time point analyzed.

EP-P = test: Nucleotidylyltransferase substrate specificity by TLC, EP-P; format: biochemical, Pyrococcus furiosus; settings: UTP, 90° C., 6 mM substrate
From the text: as §2, §3

EP-S = test: Nucleotidylyltransferase substrate specificity by TLC, EP-S; format: biochemical, Streptococcus thermophilus; settings: UTP, 45° C., 6 mM substrate
From the text: as §2, §3

EP-P2 [3] = test: Nucleotidylyltransferase substrate specificity by TLC, EP-P2; format: biochemical, P. furiousus; settings: 90° C., 6 mM substrate
From the text: A fourth nucleotidlylytransferaseenzyme has been cloned from P. furiousus (EP-P2) that has previously been shown capable of converting the only commercially available L-sugar-1-phosphate (L-fucose-1-P),[47] transferring 82% to produce UDP-L-Fucose as determined by ESI-MS. EP-P2 additionally has a broad activity range on 6 other D-sugar-1-phosphates. This enzyme was cloned as a His-tag fusion and purified by IMAC. Since we had 4 different enzymes (EP-S, EP-T, EP-P, and EP-P2) with different characteristics and substrate specificities, experiments were designed to test the substrate specificities on purified nucleotidlylytransferase enzyme and pure substrates. Reactions with each of the 4 nucleotidlylytransferase enzymes were set up using 4 different sugar-1-phosphates and 2 different nucleotides (32 reactions total), with each enzyme incubated near its optimal temperature. In a total volume of 200 μL the reactions contained 25 μL of purified enzyme, 5 mM MgCl2, 6 mM nucleotide, 6 mM sugar-1-phosphate, 4 U thermophilic pyrophosphatase (commercially available). The 4 sugar-1-phosphates were D-glucose-1-phosphate, L-glucose-1-phosphate, D-galactose-1-phosphate, and D-mannose-1-phosphate, while the 2 nucleotides chosen were dTTP and UTP. EP-P and EP-P2 were incubated at 90° C., EP-T at 65° C., and EP-S at 45° C. Samples were taken at the time of enzyme addition and every hour for three hours and then analyzed by TLC using 80% aqueous acetonitrile +10 mM TBAHS; visualized by UV and stained in KMnO4.
The UV visible spots were circled in black for FIG. 6-3 to aid in visualization as only the nucleotides and nucleotide-activated sugars are UV active. The upper left plates show TLC of standard compounds. […] To our knowledge these are the first examples of commercially viable dTDP-L-glucose enzymatic production. […] EP-S had good activity on both D-glu-1P and D-mann-1P. EP-P and EP-T both were only active on D-glucose-1P with UTP as the nucleotide. […] Furthermore, many of the reactions proceeded to completion by the first time point analyzed.

E. coli GalKMLYH = target: T2, E. coli GalKMLYH (Escherichia coli, UniProt P0A6T3, D325E/M173L/Y371H); test: GalKMLYH conversion of L-sugars at 16° C.; format: biochemical; settings: 5 hrs of incubation, partially purified cell extract
T2 construct: made in house; host or cells: E. coli
Protocol: The GalKMLYH enzyme was finally tested at 16° C. for the conversion of several other L-sugars using partially purified cell extract from the overexpressing E. coli strain and typical reaction conditions.

EP-P2 [4] = settings: determined by ESI-MS; cited from earlier work
Sugar-1-kinase-S = test: Time course conversion of alternative substrates by Sugar-1-kinase-S; format: biochemical, Streptococcus thermophilus; settings: 45° C., ~300 minutes, partially purified cell extract
[5] = target: engineered E. coli GalKMLYH (Escherichia coli, UniProt P0A6T3, D325E/M173L/Y371H); settings: substrate 1.5 g/L, purified enzyme 0.6 g/L; cited from earlier work
WT Sugar-1-kinase-P = target: T3, WT Sugar-1-kinase-P (Pyrococcus furiosus, UniProt Q9HHB6); test: Substrate specificity of purified WT Sugar-1-kinase-P (DNS assay); format: biochemical; settings: 8 mM sugar, 2.4 mg/ml enzyme, 12 mM ATP, 5 mM MgCl2, pH 7.5 phosphate buffer
T3 construct: 6-His (N); made in house; host or cells: E. coli
T3 sequence (Q9HHB6 whole entry): as above
Protocol: Often, when applying protein engineering to activity on a new substrate the resulting enzyme has relaxed substrate specificity which we wanted to achieve. The purified Sugar-1-kinase-PK27 was then tested for the conversion of a variety of sugars and compared to purified WT Sugar-1-kinase-P. The reactions were setup with 8 mM of different sugars (L-ribose, L-galactose, L-glucose, L-arabinose, L-xylose, L-rhamnose, L-mannose, L-gulose, L-fucose, and 6-Azido-D-galactose), 2.4 mg/ml enzyme, 12 mM ATP, and 5 mM MgCl2 in pH 7.5 phosphate buffer. Samples were taken every hour and analyzed by DNS assay (FIG. 4-5A).

For O=C[C@H](O)[C@@H](O)[C@@H](O)[C@H](O)CO [D-Galactose], the “conversion to sugar-1-phosphate” value (Sugar-1-kinase-P) was “completely converted”, the “degree reaction proceeded to completion (ATP to ADP conversion), WT Pyrococcus furiosus” value (shortened to “degree reaction proceeded to completion”) [1] was 90% and the “conversion to dTDP-sugar, estimated by TLC” value [2] was “greater than 80%”.

In the case of C[C@@H](O)[C@H](O)[C@H](O)[C@@H](O)C=O [D-fucose], the “degree reaction proceeded to completion” value [1] was 78%.

In the case of O=P(O)(O)O[C@H]1O[C@H](CO)[C@H](O)[C@H](O)[C@H]1O [D-galactose-1-phosphate], the activity with substrate (nucleotidyltransferase-S) was “active”.

With O=P(O)(O)O[C@H]1O[C@H](CO)[C@@H](O)[C@H](O)[C@H]1O [D-glu-1P, D-glucose-1-phosphate] the “activity on sugar-1-phosphate” value (EP-T; UTP) was “only active”, the “activity on sugar-1-phosphate” value (EP-T; dTTP) was “converted” and the “activity on sugar-1-phosphate” value (EP-P) was “only active”. The “activity on sugar-1-phosphate” value (EP-S) was “good activity” and the “activity on sugar-1-phosphate” value (EP-P2 [3]; dTTP) was “showed activity”.

With O=P(O)(O)O[C@H]1O[C@H](CO)[C@@H](O)[C@H](O)[C@@H]1O [D-mannose-1P, D-mannose-1-phosphate] the “activity on sugar-1-phosphate” value (EP-S) was “good activity” and the “activity on sugar-1-phosphate” value (EP-P2 [3]; dTTP) was “showed activity”.

With O=C[C@@H](O)[C@@H](O)[C@H](O)[C@H](O)CO [D-mannose] the “degree reaction proceeded to completion” value [1] was 54%.

In the case of O=C[C@H](O)[C@@H](O)[C@H](O)CO [D-xylose], the “degree reaction proceeded to completion” value [1] was 50%.

In the case of O=C[C@H](O)[C@@H](O)[C@@H](O)CO [L-arabinose], the “activity of GalK mutant on substrate” value (E. coli GalKMLYH) was “did not display significant activity”.

In the case of C[C@@H]1O[C@H](OP(=O)(O)O)[C@@H](O)[C@H](O)[C@@H]1O [L-fucose-1-P], the “transfer to UDP-L-Fucose” value (EP-P2 [4]) is given as 82%.

With C[C@H](O)[C@@H](O)[C@@H](O)[C@H](O)C=O [L-fucose] the “activity of GalK mutant on substrate” value (E. coli GalKMLYH) was “did not display significant activity” and the “degree reaction proceeded to completion” value [1] was 40%.

In the case of O=P(O)(O)OC1OC(CO)C(O)C(O)C1O [L-glu-1P, L-glucose-1-phosphate], the “activity on sugar-1-phosphate” value (EP-P2 [3]; UTP) was “did not appear to appreciably convert” and the “activity on sugar-1-phosphate” value (EP-P2 [3]; dTTP) was “showed activity”.

For O=C[C@@H](O)[C@H](O)[C@@H](O)[C@@H](O)CO [L-glucose], the reaction completion (Sugar-1-kinase-S) is listed as 95-100%, the “conversion to sugar-1-phosphate” value (Sugar-1-kinase-P) is listed as “completely converted” and the “conversion to 1-phosphate” value [5] is listed as 25%. For the same molecule, the “activity of GalK mutant on substrate” value (E. coli GalKMLYH) was “did not display significant activity”, the activity on sugar (WT Sugar-1-kinase-P) was “displayed activity” and the “conversion to dTDP-sugar, estimated by TLC” value [2] was ~20%.

For O=C[C@@H](O)[C@@H](O)[C@H](O)[C@@H](O)CO [L-gulose], the “activity of GalK mutant on substrate” value (E. coli GalKMLYH) was “did not display significant activity”.

In the case of O=C[C@H](O)[C@H](O)[C@@H](O)[C@@H](O)CO [L-mannose], the “activity of GalK mutant on substrate” value (E. coli GalKMLYH) was “did not display significant activity”.

For C[C@H](O)[C@H](O)[C@@H](O)[C@@H](O)C=O [L-rhamnose], the “activity of GalK mutant on substrate” value (E. coli GalKMLYH) was “did not display significant activity”.

In the case of O=C[C@@H](O)[C@@H](O)[C@@H](O)CO [L-ribose], the “activity of GalK mutant on substrate” value (E. coli GalKMLYH) was “did not display significant activity”.

For O=C[C@@H](O)[C@H](O)[C@@H](O)CO [L-xylose], the “activity of GalK mutant on substrate” value (E. coli GalKMLYH) was “did not display significant activity”.

With O=c1ccn([C@@H]2O[C@H](COP(=O)(O)OP(=O)(O)OP(=O)(O)O)[C@@H](O)[C@H]2O)c(=O)[nH]1 [UTP] the “outcome as alternative nucleotide donor” value ([2]; 8 mM, one-pot coupled reaction) was “did not result in a successfully coupled reaction”.
